Results reported in patent US9650395B2, “Antibacterial compounds and methods for use” (PTC Therapeutics, Inc., priority 2011, dated 2017).
Values after ≈ are worked out from the molar mass of the structure shown. Structures can show the parent of a compound that is named as a salt. Where two headings read alike, the source gives them in different places.

Tests used:
[1] = test system: Acinetobacter baumannii (A. baumannii) BAA747; test: Antibacterial activity, MIC, A. baumannii BAA747; type: cell-based; details: Acinetobacter baumannii; A. baumannii BAA747; read-out: MIC BAA747
[2] = test system: Gram-positive Staphylococcus aureus (S. aureus) 29213; test: Antibacterial activity, microbroth dilution MIC, S. aureus 29213; type: cell-based; details: Staphylococcus aureus; S. aureus 29213, microbroth dilution; read-out: MIC, 29213
[3] = test system: Pseudomonas aeruginosa (P. aeruginosa) 27853; test: Antibacterial activity, MIC, P. aeruginosa 27853; type: cell-based; details: Pseudomonas aeruginosa, P. aeruginosa 27853; read-out: MIC 27853
Description: (§1) The antibacterial activity from a microbroth dilution method may be presented as the minimum inhibitory concentration (MIC in […]). The MIC value is the lowest concentration of a drug which prevents macroscopically visible bacterial growth under test conditions.
Antibacterial activity of test compounds against the Gram-negative bacterium Pseudomonas aeruginosa (P. aeruginosa) 27853 is shown in Table 5.

[4] = test system: Klebsiella pneumoniae (K. pneumoniae) 35657; test: Antibacterial activity, MIC, K. pneumoniae 35657; type: cell-based; details: Klebsiella pneumoniae
[5] = test system: control Gram-negative E. coli 25922 strain; test: Antibacterial activity, microbroth dilution MIC, E. coli 25922; type: cell-based, Escherichia coli; details: Escherichia coli; E. coli 25922, microbroth dilution; read-out: MIC, 25922
[6] = test system: super sensitive Gram-negative Escherichia coli (E. coli) BAS849; test: Antibacterial activity, microbroth dilution MIC, E. coli BAS849; type: cell-based; details: Escherichia coli, read-out: MIC, BAS849
[7] = test system: quinolone resistant E. coli LZ3111; test: Antibacterial activity, MIC, quinolone resistant E. coli LZ3111; type: cell-based, Escherichia coli; details: Escherichia coli, read-out: MIC, LZ3111
Description: as §1
Mutations in these regions are known to confer a high level resistance to the quinolone class of antibiotics.

[8] = E. coli BAS849, microbroth dilution

Compound | MIC [1] [µg/mL] | MIC [2] [µg/mL] | MIC [3] [µg/mL] | MIC [4] [µg/mL] | MIC [5] [µg/mL] | MIC [6, 8] [µg/mL] | MIC [7] [µg/mL] | MIC [6] [µg/mL]
CCc1cc(C(=O)O)c(=O)[nH]c1-c1ccc(N2Cc3cccnc3C2)cc1 [Cpd 192, 6-[4-(5,7-dihydro-6H-pyrrolo[3,4-b]pyridin-6-yl)phenyl]-5-ethyl-2-oxo-1,2-dihydropyridine-3-carboxylic acid] | 12.5 to 150 (≈ 34.6 to 415 µM) | 3.5 to 12.5 (≈ 9.68 to 34.6 µM) | 12.5 to 150 (≈ 34.6 to 415 µM) | 12.5 to 150 (≈ 34.6 to 415 µM) | 3.5 to 12.5 (≈ 9.68 to 34.6 µM) | < 1 | 12.5 to 150 (≈ 34.6 to 415 µM) | 
CCc1cc(C(=O)O)c(=O)[nH]c1-c1ccc(N2CCC(C3(NCc4ccccc4)CC3)C2)cc1.O=C(O)C(F)(F)F (centres unmarked) [Cpd 217, 6-(4-{3-[1-(benzylamino)cyclopropyl]pyrrolidin-1-yl}phenyl)-5-ethyl-2-oxo-1,2-dihydropyridine-3-carboxylic acid trifluoroacetate] | 12.5 to 150 | 3.5 to 12.5 | 12.5 to 150 | 3.5 to 12.5 | 3.5 to 12.5 |  |  | < 1
CCc1cc(C(=O)O)c(=O)[nH]c1-c1ccc(N2CC3CCCCC3(C#N)C2)cc1 (centres unmarked) [Cpd 219, 6-[4-(3a-cyanooctahydro-2H-isoindol-2-yl)phenyl]-5-ethyl-2-oxo-1,2-dihydropyridine-3-carboxylic acid] | 12.5 to 150 (≈ 31.9 to 383 µM) | 12.5 to 150 (≈ 31.9 to 383 µM) | 12.5 to 150 (≈ 31.9 to 383 µM) | 12.5 to 150 (≈ 31.9 to 383 µM) | 12.5 to 150 (≈ 31.9 to 383 µM) | < 1 | 12.5 to 150 (≈ 31.9 to 383 µM) | 
CCc1cc(C(=O)O)c(=O)[nH]c1-c1ccc(N2CC[C@@H](O)C2)cc1F [Cpd 225, 5-ethyl-6-{2-fluoro-4-[(3R)-3-hydroxypyrrolidin-1-yl]phenyl}-2-oxo-1,2-dihydropyridine-3-carboxylic acid] | 12.5 to 150 (≈ 36.1 to 433 µM) | 12.5 to 150 (≈ 36.1 to 433 µM) | 12.5 to 150 (≈ 36.1 to 433 µM) | 1 to 3.5 (≈ 2.89 to 10.1 µM) | 3.5 to 12.5 (≈ 10.1 to 36.1 µM) | < 1 | 12.5 to 150 (≈ 36.1 to 433 µM) | 
CCc1cc(C(=O)O)c(=O)[nH]c1-c1ccc(N2C[C@@H]3[C@@H](N)[C@@H]3C2)cc1F [Cpd 231, 6-{4-[(1R,5S,6s)-6-amino-3-azabicyclo[3.1.0]hex-3-yl]-2-fluorophenyl}-5-ethyl-2-oxo-1,2-dihydropyridine-3-carboxylic acid trifluoroacetate] | 12.5 to 150 | 12.5 to 150 | 12.5 to 150 | 1 to 3.5 | 1 to 3.5 |  | 12.5 to 150 | < 1
CCc1c(-c2ccc(N3CCC(C4(N(C)C)CC4)C3)cc2)[nH]c(=O)c(C(=O)O)c1O (centres unmarked) [Cpd 247, 6-(4-{3-[1-(dimethylamino)cyclopropyl]pyrrolidin-1-yl}phenyl)-5-ethyl-4-hydroxy-2-oxo-1,2-dihydropyridine-3-carboxylic acid] | 12.5 to 150 (≈ 30.4 to 365 µM) | 3.5 to 12.5 (≈ 8.51 to 30.4 µM) | 12.5 to 150 (≈ 30.4 to 365 µM) | 3.5 to 12.5 (≈ 8.51 to 30.4 µM) | 3.5 to 12.5 (≈ 8.51 to 30.4 µM) | < 1 | 12.5 to 150 (≈ 30.4 to 365 µM) | 
CCc1c(-c2ccc(N3C[C@H]4CC[C@H](NC)[C@H]4C3)cc2)[nH]c(=O)c(C(=O)O)c1O.Cl [Cpd 267, 5-ethyl-4-hydroxy-6-{4-[(3aR,4S,6aS)-4-(methylamino)hexahydrocyclopenta[c]pyrrol-2(1H)-yl]phenyl}-2-oxo-1,2-dihydropyridine-3-carboxylic acid hydrochloride] | 12.5 to 150 | 12.5 to 150 | 12.5 to 150 | 3.5 to 12.5 | 3.5 to 12.5 | 1 to 3.5 | 3.5 to 12.5 | 
CCc1c(-c2ccc(N3CC4CCCCC4(C#N)C3)cc2)[nH]c(=O)c(C(=O)O)c1O.O=C(O)C(F)(F)F (centres unmarked) [Cpd 276, 6-[4-(3a-cyanooctahydro-2H-isoindol-2-yl)phenyl]-5-ethyl-4-hydroxy-2-oxo-1,2-dihydropyridine-3-carboxylic acid trifluoroacetate] | 12.5 to 150 | 1 to 3.5 | 12.5 to 150 | 12.5 to 150 | 12.5 to 150 |  | 12.5 to 150 | < 1
CCc1c(-c2ccc(N3CC[C@@H](O)C3)cc2F)[nH]c(=O)c(C(=O)O)c1O [Cpd 292, 5-ethyl-6-{2-fluoro-4-[(3R)-3-hydroxypyrrolidin-1-yl]phenyl}-4-hydroxy-2-oxo-1,2-dihydropyridine-3-carboxylic acid] | 3.5 to 12.5 (≈ 9.66 to 34.5 µM) | 12.5 to 150 (≈ 34.5 to 414 µM) | 3.5 to 12.5 (≈ 9.66 to 34.5 µM) | 1 to 3.5 (≈ 2.76 to 9.66 µM) | 1 to 3.5 (≈ 2.76 to 9.66 µM) | < 1 | 12.5 to 150 (≈ 34.5 to 414 µM) | 
